Where a name gives a salt, the structure may show the parent alone.
Tested on: calpain
Assay: inhibition of calpain in vitro, synthetic fluorogenic substrates (Sasaki et al.)
Type: biochemical
Conditions: percent decrease in rate of substrate hydrolysis
Experimental: The assays were performed using synthetic fluorogenic substrates. Inhibition of enzyme activity was calculated on the percent decease in the rate of substrate hydrolysis in the presence of inhibitor relative to the rate in its absence. IC50 s(nM) were calculated.

Row | Compound | IC50
1 | O=C[C@H](Cc1ccccc1)NC(=O)c1cc(C#Cc2ccccc2)nc2ccccc12 [Example 12, (S)-N-(1-formyl-2-phenylethyl)-2-(phenylethynyl)-4-quinolinecarboxamide] | 12 nM
2 | O=C[C@H](CCCCNS(=O)(=O)c1ccccc1)NC(=O)c1cc(-c2ccccc2)nc2ccccc12 [Example 10, (S)-N-[1-Formyl-5-[(phenylsulfonyl)amino]pentyl]-2-phenyl-4-quinolinecarboxamide] | 42 nM
3 | O=C[C@H](Cc1ccccc1)NC(=O)c1cc(-c2ccccc2-c2ccccc2)nc2ccccc12 [Example 6, (S)-2-[1,1'-Biphenyl]-2-yl-N-(1-formyl-2-phenylethyl)-4-quinolinecarboxamide] | 19 nM
4 | O=C[C@H](CCCCNC(=O)OCc1ccncc1)NC(=O)c1cc(-c2ccccc2)nc2ccccc12 [Example 11, (S)-N-(1-Formyl-5-[(4-pyridylmethoxy)carbonylamino]pentyl]-2-phenyl-4-quinolinecarboxamide dihydrochloride salt] | 160 nM
5 | O=C[C@H](Cc1ccccc1)NC(=O)c1cc(-c2ccc(-c3cccnc3)cc2)nc2ccccc12 [Example 9, (S)-N-(1-Formyl-2-phenylethyl)-2-[4-(3-pyridinyl)phenyl]-4-quinolinecarboxamide] | 46 nM
6 | O=C[C@H](Cc1ccccc1)NC(=O)c1cc(-c2ccc(Oc3ccccc3)cc2)nc2ccccc12 [Example 5, (S)-N-(1-Formyl-2-phenylethyl)-2-(4-phenoxyphenyl)-4-quinolinecarboxamide] | 32 nM
7 | O=C[C@H](Cc1ccccc1)NC(=O)c1cc(N2CCN(c3ccccc3)CC2)nc2ccccc12 [Example 8, (S)-N-(1-Formyl-2-phenylethyl)-2-(4-phenyl-1-piperazinyl)-4-quinolinecarboxamide] | 38 nM
8 | O=C[C@H](Cc1ccccc1)NC(=O)c1cc(C23CC4CC(CC(C4)C2)C3)nc2ccccc12 [Example 4, (S)-2-(1-Adamantyl)-N-(1-formyl-2-phenylethyl)-4-quinolinecarboxamide] | 123 nM
9 | O=C[C@H](Cc1ccccc1)NC(=O)c1cc(-c2ccc(-c3ccccc3)cc2)nc2ccccc12 [Example 3, (S)-2-[1.1'-Biphenyl]-4-yl-N-(1-formyl-2-phenylethyl)-4-quinolinecarboxamide] | 20 nM
10 | O=C[C@H](Cc1ccccc1)NC(=O)c1cc(-c2ccc(Cl)cc2)nc2ccccc12 [Example 2, (S)-2-(4-Chlorophenyl)-N-(1-formyl-2-phenylethyl)-4-quinolinecarboxamide] | 66 nM
11 | O=C[C@H](Cc1ccccc1)NC(=O)c1cc(-c2ccccc2)nc2ccccc12 [Example 1, (S)-N-(1-formyl-2-phenylethyl)-2-phenyl-4-quinolinecarboxamide] | 65 nM
12 | CCCCNC(=O)C(=O)[C@H](Cc1ccccc1)NC(=O)c1cc(C#Cc2ccccc2)nc2ccccc12 [Example 13, N-[3-(n-butylamino)-2,3-dioxo-1-(phenylmethyl)]-2-(phenylethynyl)-4-quinolinecarboxamide] | 77 nM
